Results as given in patent US9139529B2, “Substituted quinoxalines as sodium channel modulators” (VERTEX PHARMACEUTICALS INCORPORATED, priority 2013, dated 2015).

target: human Nav1.8 (Homo sapiens (Human), UniProt Q9Y5Y9); assay: E-VIPR optical membrane potential assay with electrical stimulation; assay type: cell-based; conditions: HEK cells expressing human Nav1.8
Source text: Assays for Detecting and Measuring NaV Inhibition Properties of Compounds E-VIPR Optical Membrane Potential Assay Method with Electrical Stimulation
Sodium channels are voltage-dependent proteins that can be activated by inducing membrane voltage changes by applying electric fields. The electrical stimulation instrument and methods of use are described in Ion Channel Assay Methods PCT/US01/21652, herein incorporated by reference and are referred to as E-VIPR. The instrument comprises a microtiter plate handler, an optical system for exciting the coumarin dye while simultaneously recording the coumarin and oxonol emissions, a waveform generator, a current- or voltage-controlled amplifier, and a device for inserting electrodes in well. Under integrated computer control, this instrument passes user-programmed electrical stimulus protocols to cells within the wells of the microtiter plate.
24 hours before the assay on E-VIPR, HEK cells expressing human Nav1.8 were seeded in 384-well poly-lysine coated plates at 15,000-20,000 cells per well. HEK cells were grown in media (exact composition is specific to each cell type and NaV subtype) supplemented with 10% FBS (Fetal Bovine Serum, qualified; GibcoBRL #16140-071) and 1% Pen-Strep (Penicillin-Streptomycin; GibcoBRL #15140-122). Cells were grown in vented cap flasks, in 90% humidity and 5% CO2.
1) Pre-spotted compounds (in neat DMSO) into compound plates. Vehicle control (neat DMSO), the positive control (20 mM DMSO stock tetracaine, 125 μM final in assay) and test compounds were added to each well at 160× desired final concentration in neat DMSO. Final compound plate volume was 80 μL (80-fold intermediate dilution from 1 μL DMSO spot; 160-fold final dilution after transfer to cell plate). Final DMSO concentration for all wells in assay was 0.625%.
2) Prepared Hexyl Dye Solution.
3) Prepared cell plates. On the day of the assay, medium was aspirated and cells were washed three times with 100 μL of Bath1 Solution, maintaining 25 μL residual volume in each well.
4) Dispensed 25 μL per well of Hexyl Dye Solution into cell plates. Incubated for 20-35 minutes at room temp or ambient conditions.
5) Dispensed 80 μL per well of Bath1 into compound plates. Acid Yellow-17 (1 mM) was added and Potassium Chloride was altered from 4.5 to 20 mM depending on the NaV subtype and assay sensitivity.
6) Washed cell plates three times with 100 μL per well of Bath1, leaving 25 μL of residual volume. Then transferred 25 uL per well from Compound Plates to Cell Plates. Incubated for 20-35 minutes at room temp/ambient condition.
7) Read Plate on E-VIPR. Used the current-controlled amplifier to deliver stimulation wave pulses for 10 seconds and a scan rate of 200 Hz. A pre-stimulus recording was performed for 0.5 seconds to obtain the un-stimulated intensities baseline. The stimulatory waveform was followed by 0.5 seconds of post-stimulation recording to examine the relaxation to the resting state.
Data was analyzed and reported as normalized ratios of emission intensities measured in the 460 nm and 580 nm channels. The response as a function of time was reported as the ratios obtained using the following formula: […]
The data was further reduced by calculating the initial (Ri) and final (Rf) ratios. These were the average ratio values during part or all of the pre-stimulation period, and during sample points during the stimulation period. The response to the stimulus R=Rf/Ri was then calculated and reported as a function of time.
Control responses were obtained by performing assays in the presence of a compound with the desired properties (positive control), such as tetracaine, and in the absence of pharmacological agents (negative control). Responses to the negative (N) and positive (P) controls were calculated as above. The compound antagonist activity A is defined as:
[formula] where R is the ratio response of the test compound

human Nav1.8, sequence (Q9Y5Y9 whole entry): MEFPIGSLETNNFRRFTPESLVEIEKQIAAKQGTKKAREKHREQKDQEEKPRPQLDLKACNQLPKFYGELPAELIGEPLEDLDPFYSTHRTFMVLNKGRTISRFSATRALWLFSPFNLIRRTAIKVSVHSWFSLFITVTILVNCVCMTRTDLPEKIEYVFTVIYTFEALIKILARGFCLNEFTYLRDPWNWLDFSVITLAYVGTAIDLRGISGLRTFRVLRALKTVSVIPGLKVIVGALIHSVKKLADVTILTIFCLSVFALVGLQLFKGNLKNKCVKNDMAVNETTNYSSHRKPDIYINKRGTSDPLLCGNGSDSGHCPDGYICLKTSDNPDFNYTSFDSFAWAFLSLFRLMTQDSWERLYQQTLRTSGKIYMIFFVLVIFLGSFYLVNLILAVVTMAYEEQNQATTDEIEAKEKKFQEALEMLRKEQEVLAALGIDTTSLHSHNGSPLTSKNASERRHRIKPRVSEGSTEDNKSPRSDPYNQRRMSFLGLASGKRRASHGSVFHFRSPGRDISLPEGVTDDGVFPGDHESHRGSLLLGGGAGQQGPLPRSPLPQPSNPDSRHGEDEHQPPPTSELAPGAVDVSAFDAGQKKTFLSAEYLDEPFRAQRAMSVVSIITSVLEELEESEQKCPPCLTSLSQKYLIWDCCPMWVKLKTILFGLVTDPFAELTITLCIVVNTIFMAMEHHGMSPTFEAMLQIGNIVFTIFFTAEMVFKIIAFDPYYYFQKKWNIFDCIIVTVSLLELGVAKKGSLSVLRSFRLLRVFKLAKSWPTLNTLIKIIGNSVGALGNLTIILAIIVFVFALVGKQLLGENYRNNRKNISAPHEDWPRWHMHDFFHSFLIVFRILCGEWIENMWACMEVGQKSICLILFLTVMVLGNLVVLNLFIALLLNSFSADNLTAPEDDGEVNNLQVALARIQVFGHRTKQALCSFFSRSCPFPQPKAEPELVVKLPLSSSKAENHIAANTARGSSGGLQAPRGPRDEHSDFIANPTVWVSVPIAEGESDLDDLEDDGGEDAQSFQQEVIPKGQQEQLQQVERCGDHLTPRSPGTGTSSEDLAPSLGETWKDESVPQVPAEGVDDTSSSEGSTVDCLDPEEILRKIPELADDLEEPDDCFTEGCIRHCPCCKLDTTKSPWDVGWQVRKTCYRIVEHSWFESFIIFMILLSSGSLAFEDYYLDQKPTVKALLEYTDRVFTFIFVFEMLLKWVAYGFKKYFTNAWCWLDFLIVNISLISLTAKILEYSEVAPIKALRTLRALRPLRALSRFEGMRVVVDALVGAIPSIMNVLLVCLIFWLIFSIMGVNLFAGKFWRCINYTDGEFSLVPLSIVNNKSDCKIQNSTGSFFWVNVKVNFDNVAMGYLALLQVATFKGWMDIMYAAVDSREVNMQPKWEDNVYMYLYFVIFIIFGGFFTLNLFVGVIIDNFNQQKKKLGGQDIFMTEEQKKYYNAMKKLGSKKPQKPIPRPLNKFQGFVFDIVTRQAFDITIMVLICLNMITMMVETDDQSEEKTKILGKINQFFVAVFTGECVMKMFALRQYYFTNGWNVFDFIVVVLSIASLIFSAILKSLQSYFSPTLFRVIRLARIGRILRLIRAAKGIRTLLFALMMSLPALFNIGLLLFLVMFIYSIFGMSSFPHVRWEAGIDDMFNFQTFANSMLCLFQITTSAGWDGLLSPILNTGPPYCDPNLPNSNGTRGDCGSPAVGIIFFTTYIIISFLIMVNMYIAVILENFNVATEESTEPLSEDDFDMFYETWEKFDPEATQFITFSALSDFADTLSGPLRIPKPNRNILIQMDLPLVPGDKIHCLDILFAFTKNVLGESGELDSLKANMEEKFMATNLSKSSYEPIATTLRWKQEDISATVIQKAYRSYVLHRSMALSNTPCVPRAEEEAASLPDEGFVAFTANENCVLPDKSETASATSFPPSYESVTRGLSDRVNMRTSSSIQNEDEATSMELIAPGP

| Structure (SMILES) | IC50 [µM] |
| --- | --- |
| NS(=O)(=O)c1cccc(NC(=O)c2cc3ccccc3nc2Oc2ccc(OC(F)(F)F)cc2)c1 [Compound 68, N-(3-sulfamoylphenyl)-2-(4-(trifluoromethoxy)phenoxy)quinoline-3-carboxamide] | 0.013 |
| COc1ccc(Oc2nc3ccccc3nc2C(=O)Nc2cccc(S(N)(=O)=O)c2)c(F)c1 [Compound 12, 3-(2-fluoro-4-methoxyphenoxy)-N-(3-sulfamoylphenyl)quinoxaline-2-carboxamide] | 0.022 |
| O=C(O)c1ccc(NC(=O)c2nc3ccccc3nc2Oc2ccccc2OC(F)F)cn1 [Compound 24, 5-(3-(2-(difluoromethoxy)phenoxy)quinoxaline-2-carboxamido)picolinic acid] | 0.34 |
| O=C(O)c1ccc(NC(=O)c2nc3ccccc3nc2Oc2ccc(OC(F)(F)F)cc2)cn1 [Compound 31, 5-(3-(4-(trifluoromethoxy)phenoxy)quinoxaline-2-carboxamido)picolinic acid] | 0.015 |
| NS(=O)(=O)c1cccc(NC(=O)c2nc3ccccc3nc2Oc2ccc(OC(F)(F)F)cc2)c1 [Compound 3, N-(3-sulfamoylphenyl)-3-(4-(trifluoromethoxy)phenoxy)quinoxaline-2-carboxamide] | 0.014 |
| COc1ccc(Oc2nc3ccccc3cc2C(=O)Nc2cccc(S(N)(=O)=O)c2)c(F)c1 [Compound 70, 2-(2-fluoro-4-methoxyphenoxy)-N-(3-sulfamoylphenyl)quinoline-3-carboxamide] | 0.034 |
| CNS(=O)(=O)c1cccc(NC(=O)c2nc3ccccc3nc2Oc2ccc(F)cc2OC)c1 [Compound 16, 3-(4-fluoro-2-methoxyphenoxy)-N-(3-(N-methylsulfamoyl)phenyl)quinoxaline-2-carboxamide] | 0.022 |
| COc1ccc(Oc2nc3ccccc3nc2C(=O)Nc2ccc(C(=O)O)nc2)c(Cl)c1 [Compound 30, 5-(3-(2-chloro-4-methoxyphenoxy)quinoxaline-2-carboxamido)picolinic acid] | 0.069 |
| COc1cc(F)ccc1Oc1nc2ccccc2nc1C(=O)Nc1cc[nH]n1 [Compound 40, 3-(4-fluoro-2-methoxyphenoxy)-N-(1H-pyrazol-3-yl)quinoxaline-2-carboxamide] | 1.7 |
| COc1cc(F)ccc1Oc1nc2ccccc2nc1C(=O)Nc1ccc(C(N)=O)cc1 [Compound 58, N-(4-carbamoylphenyl)-3-(4-fluoro-2-methoxyphenoxy)quinoxaline-2-carboxamide] | 0.031 |
| Cc1cc(F)ccc1Oc1nc2ccccc2cc1C(=O)Nc1cccc(S(N)(=O)=O)c1 [Compound 63, 2-(4-fluoro-2-methylphenoxy)-N-(3-sulfamoylphenyl)quinoline-3-carboxamide] | 0.008 |
| COc1cc(F)ccc1Oc1nc2ccccc2nc1C(=O)Nc1ccc2cn[nH]c2c1 [Compound 47, 3-(4-fluoro-2-methoxyphenoxy)-N-(1H-indazol-6-yl)quinoxaline-2-carboxamide] | 0.13 |
| O=C(Nc1cc[nH]c(=O)c1)c1nc2ccccc2nc1Oc1ccc(F)cc1 [Compound 35, 3-(4-fluorophenoxy)-N-(2-oxo-1,2-dihydropyridin-4-yl)quinoxaline-2-carboxamide] | 0.074 |
| COc1cc(F)ccc1Oc1nc2ccccc2nc1C(=O)Nc1ccc(C#N)cc1 [Compound 55, N-(4-cyanophenyl)-3-(4-fluoro-2-methoxyphenoxy)quinoxaline-2-carboxamide] | 0.046 |
| COc1cc(F)ccc1Oc1nc2ccccc2nc1C(=O)Nc1nc[nH]n1 [Compound 38, 3-(4-fluoro-2-methoxyphenoxy)-N-(1H-1,2,4-triazol-3-yl)quinoxaline-2-carboxamide] | 1.22 |
| COc1cc(F)ccc1Oc1nc2ccccc2nc1C(=O)Nc1cccc(C(=O)O)c1 [Compound 36, 3-(3-(4-fluoro-2-methoxyphenoxy)quinoxaline-2-carboxamido)benzoic acid] | 0.46 |
| COc1cc(F)ccc1Oc1nc2ccccc2nc1C(=O)Nc1ccc2[nH]c(=O)[nH]c2c1 [Compound 57, 3-(4-fluoro-2-methoxyphenoxy)-N-(2-oxo-2,3-dihydro-1H-benzo[d]imidazol-5-yl)quinoxaline-2-carboxamide] | 0.019 |

| Structure (SMILES) | IC50 [µM] |
| --- | --- |
| O=C(O)c1ccc(NC(=O)c2nc3ccccc3nc2Oc2ccc(F)cc2)cn1 [Compound 18, 5-(3-(4-fluorophenoxy)quinoxaline-2-carboxamido)picolinic acid] | 0.25 |
| NS(=O)(=O)c1cccc(NC(=O)c2nc3ccccc3nc2Oc2ccc(F)cc2)c1 [Compound 1, 3-(4-fluorophenoxy)-N-(3-sulfamoylphenyl)quinoxaline-2-carboxamide] | 0.027 |
| NS(=O)(=O)c1cccc(NC(=O)c2cc3ccccc3nc2Oc2ccc(F)cc2)c1 [Compound 60, 2-(4-fluorophenoxy)-N-(3-sulfamoylphenyl)quinoline-3-carboxamide] | 0.017 |
| Cc1cc(Cl)ccc1Oc1nc2ccccc2cc1C(=O)Nc1cccc(S(N)(=O)=O)c1 [Compound 71, 2-(4-chloro-2-methylphenoxy)-N-(3-sulfamoylphenyl)quinoline-3-carboxamide] | 0.014 |
| COc1cc(F)ccc1Oc1nc2ccccc2nc1C(=O)Nc1nc(C(=O)O)co1 [Compound 39, 2-(3-(4-fluoro-2-methoxyphenoxy)quinoxaline-2-carboxamido)oxazole-4-carboxylic acid] | 2.6 |
| COc1cc(F)ccc1Oc1nc2ccccc2nc1C(=O)Nc1cc(C#N)ccn1 [Compound 50, N-(4-cyanopyridin-2-yl)-3-(4-fluoro-2-methoxyphenoxy)quinoxaline-2-carboxamide] | 1.25 |
| COc1cc(F)ccc1Oc1nc2ccccc2nc1C(=O)Nc1cccc(S(C)(=O)=O)c1 [Compound 46, 3-(4-fluoro-2-methoxyphenoxy)-N-(3-(methylsulfonyl)phenyl)quinoxaline-2-carboxamide] | 0.001 |
| NS(=O)(=O)c1cccc(NC(=O)c2cc3ccccc3nc2Oc2ccc(OCC(F)(F)F)cc2)c1 [Compound 67, N-(3-sulfamoylphenyl)-2-(4-(2,2,2-trifluoroethoxy)phenoxy)quinoline-3-carboxamide] | 0.061 |
| COc1ccc(Oc2nc3ccccc3nc2C(=O)Nc2ccc(C(=O)O)nc2)c(OC)c1 [Compound 26, 5-(3-(2,4-dimethoxyphenoxy)quinoxaline-2-carboxamido)picolinic acid] | 0.046 |
| COc1ccc(Oc2nc3ccccc3cc2C(=O)Nc2cccc(S(N)(=O)=O)c2)c(OC)c1 [Compound 72, 2-(2,4-dimethoxyphenoxy)-N-(3-sulfamoylphenyl)quinoline-3-carboxamide] | 0.026 |
| COc1cc(F)ccc1Oc1nc2ccccc2nc1C(=O)Nc1cccnc1 [Compound 54, 3-(4-fluoro-2-methoxyphenoxy)-N-(pyridin-3-yl)quinoxaline-2-carboxamide] | 0.08 |
| O=C(O)c1cc(NC(=O)c2nc3ccccc3nc2Oc2ccc(OC(F)(F)F)cc2)ccn1 [Compound 33, 4-(3-(4-(trifluoromethoxy)phenoxy)quinoxaline-2-carboxamido)picolinic acid] | 0.007 |
| COc1cc(F)ccc1Oc1nc2ccccc2nc1C(=O)Nc1ccncc1 [Compound 53, 3-(4-fluoro-2-methoxyphenoxy)-N-(pyridin-4-yl)quinoxaline-2-carboxamide] | 0.022 |
| COc1cc(F)ccc1Oc1nc2ccccc2nc1C(=O)Nc1ccc(C(=O)O)nc1 [Compound 32, 5-(3-(4-fluoro-2-methoxyphenoxy)quinoxaline-2-carboxamido)picolinic acid] | 0.083 |
| NS(=O)(=O)c1cccc(NC(=O)c2nc3ccccc3nc2Oc2ccc(F)cc2F)c1 [Compound 5, 3-(2,4-difluorophenoxy)-N-(3-sulfamoylphenyl)quinoxaline-2-carboxamide] | 0.013 |
| Cc1cc(Cl)ccc1Oc1nc2ccccc2nc1C(=O)Nc1cccc(S(N)(=O)=O)c1 [Compound 9, 3-(4-chloro-2-methylphenoxy)-N-(3-sulfamoylphenyl)quinoxaline-2-carboxamide] | 0.014 |
